Measurements from ChEMBL document CHEMBL3885881, “DrugMatrix”.

Organism: Rattus norvegicus
Assay: DrugMatrix - Regimen: Daily Repeat
Assay type: toxicity, organism-based, Sprague-Dawley
Set-up: regimen Daily Repeat, gender Male, age 6-8 weeks
Conditions: in vivo, po, route oral GAVAGE, […]; for ABSOLUTE BASOPHIL / ABSOLUTE EOSINOPHIL / ABSOLUTE LYMPHOCYTE / ABSOLUTE MONOCYTE / ABSOLUTE SEGMENTED NEUTROPHIL / BASOPHIL / EOSINOPHIL / ERYTHROCYTE COUNT / HEMATOCRIT / HEMOGLOBIN / LEUKOCYTE COUNT / LYMPHOCYTE / MEAN CORPUSCULAR HEMOGLOBIN / MEAN CORPUSCULAR HEMOGLOBIN CONCENTRATION / MEAN CORPUSCULAR VOLUME / MONOCYTE / NEUTROPHIL / NUCLEATED RED BLOOD CELLS / PLATELET COUNT: tissue Blood; for ALANINE AMINOTRANSFERASE / ALBUMIN / ALKALINE PHOSPHATASE / ASPARTATE AMINOTRANSFERASE / BLOOD UREA NITROGEN / CARBON DIOXIDE / CHLORIDE / CHOLESTEROL / CREATINE PHOSPHOKINASE / CREATININE / GLUCOSE / LACTATE DEHYDROGENASE / LIPASE / PHOSPHORUS / POTASSIUM / SODIUM / TOTAL BILIRUBIN / TOTAL PROTEIN / URIC ACID: tissue Plasma
[1] = 0 mg/kg, 72 h, dose level Control, time 3 day
[2] = 0 mg/kg, dose level Control, time 7 day
[3] = 30 mg/kg, 72 h, dose level Low, time 3 day

S=C=Nc1cccc2ccccc12 [1-NAPHTHYLISOTHIOCYANATE]
ABSOLUTE BASOPHIL [1]: 0 CELLS/uL
ABSOLUTE EOSINOPHIL [1]: 47.5 CELLS/uL
ABSOLUTE LYMPHOCYTE [1]: 9600.67 CELLS/uL
ABSOLUTE MONOCYTE [1]: 195.5 CELLS/uL
ABSOLUTE SEGMENTED NEUTROPHIL [1]: 839.67 CELLS/uL
BASOPHIL [1]: 0%
EOSINOPHIL [1]: 0.5%
ERYTHROCYTE COUNT [1]: 5.26 x10E6/uL
HEMATOCRIT [1]: 34.48%
HEMOGLOBIN [1]: 12.77 G/DL
LEUKOCYTE COUNT [1]: 10.68 x10E3/uL
LYMPHOCYTE [1]: 89.67%
MEAN CORPUSCULAR HEMOGLOBIN [1]: 24.3 pg
MEAN CORPUSCULAR HEMOGLOBIN CONCENTRATION [1]: 37.05 G/DL
MEAN CORPUSCULAR VOLUME [1]: 65.62 fL
MONOCYTE [1]: 1.83%
NEUTROPHIL [1]: 8%
NUCLEATED RED BLOOD CELLS [1]: 0.17 /100WBC
PLATELET COUNT [1]: 1038.67 x10E3/uL
ALANINE AMINOTRANSFERASE [1]: 65.17 u/L
ALBUMIN [1]: 4.2 G/DL
ALKALINE PHOSPHATASE [1]: 377.5 u/L
ASPARTATE AMINOTRANSFERASE [1]: 90.5 u/L
BLOOD UREA NITROGEN [1]: 13.5 mg/dL
CARBON DIOXIDE [1]: 31.17 mmol/L
CHLORIDE [1]: 98.33 MEQ/L
CHOLESTEROL [1]: 66.33 mg/dL
CREATINE PHOSPHOKINASE [1]: 478.83 u/L
CREATININE [1]: 0.19 mg/dL
GLUCOSE [1]: 155.17 mg/dL
LACTATE DEHYDROGENASE [1]: 107.5 u/L
LIPASE [1]: 10.33 u/L
PHOSPHORUS [1]: 9.25 mg/dL
POTASSIUM [1]: 5.43 MEQ/L
SODIUM [1]: 142.05 MEQ/L
TOTAL BILIRUBIN [1]: 0.12 mg/dL
TOTAL PROTEIN [1]: 5.95 G/DL
URIC ACID [1]: 0.62 mg/dL
ABSOLUTE BASOPHIL [2]: 0 CELLS/uL
ABSOLUTE EOSINOPHIL [2]: 43.5 CELLS/uL
ABSOLUTE LYMPHOCYTE [2]: 9369.83 CELLS/uL
ABSOLUTE MONOCYTE [2]: 196.17 CELLS/uL
ABSOLUTE SEGMENTED NEUTROPHIL [2]: 723.83 CELLS/uL
BASOPHIL [2]: 0%
EOSINOPHIL [2]: 0.5%
ERYTHROCYTE COUNT [2]: 5.09 x10E6/uL
HEMATOCRIT [2]: 32.42%
HEMOGLOBIN [2]: 13.1 G/DL
LEUKOCYTE COUNT [2]: 10.33 x10E3/uL
LYMPHOCYTE [2]: 90.83%
MEAN CORPUSCULAR HEMOGLOBIN [2]: 25.75 pg
MEAN CORPUSCULAR HEMOGLOBIN CONCENTRATION [2]: 40.43 G/DL
MEAN CORPUSCULAR VOLUME [2]: 63.62 fL
MONOCYTE [2]: 1.67%
NEUTROPHIL [2]: 7%
NUCLEATED RED BLOOD CELLS [2]: 0 /100WBC
PLATELET COUNT [2]: 1106.5 x10E3/uL
ALANINE AMINOTRANSFERASE [2]: 48.67 u/L
ALBUMIN [2]: 4.13 G/DL
ALKALINE PHOSPHATASE [2]: 275.17 u/L
ASPARTATE AMINOTRANSFERASE [2]: 73.17 u/L
BLOOD UREA NITROGEN [2]: 13.17 mg/dL
CARBON DIOXIDE [2]: 27.5 mmol/L
CHLORIDE [2]: 99.67 MEQ/L
CHOLESTEROL [2]: 60.83 mg/dL
CREATINE PHOSPHOKINASE [2]: 213 u/L
CREATININE [2]: 0.2 mg/dL
GLUCOSE [2]: 166.67 mg/dL
LACTATE DEHYDROGENASE [2]: 94.5 u/L
LIPASE [2]: 10.5 u/L
PHOSPHORUS [2]: 9.98 mg/dL
POTASSIUM [2]: 5.3 MEQ/L
SODIUM [2]: 140.77 MEQ/L
TOTAL BILIRUBIN [2]: 0.15 mg/dL
TOTAL PROTEIN [2]: 5.88 G/DL
URIC ACID [2]: 0.82 mg/dL
ABSOLUTE BASOPHIL [3]: 0 CELLS/uL
ABSOLUTE EOSINOPHIL [3]: 54.67 CELLS/uL
ABSOLUTE LYMPHOCYTE [3]: 18655.83 CELLS/uL
ABSOLUTE MONOCYTE [3]: 720.5 CELLS/uL
ABSOLUTE SEGMENTED NEUTROPHIL [3]: 2902.33 CELLS/uL
BASOPHIL [3]: 0%
EOSINOPHIL [3]: 0.33%
ERYTHROCYTE COUNT [3]: 6.41 x10E6/uL
HEMATOCRIT [3]: 39.98%
HEMOGLOBIN [3]: 14.27 G/DL
LEUKOCYTE COUNT [3]: 22.33 x10E3/uL
LYMPHOCYTE [3]: 84.17%
MEAN CORPUSCULAR HEMOGLOBIN [3]: 22.4 pg
MEAN CORPUSCULAR HEMOGLOBIN CONCENTRATION [3]: 35.92 G/DL
MEAN CORPUSCULAR VOLUME [3]: 62.38 fL
MONOCYTE [3]: 3.17%
NEUTROPHIL [3]: 12.33%
NUCLEATED RED BLOOD CELLS [3]: 0 /100WBC
PLATELET COUNT [3]: 844.83 x10E3/uL
ALANINE AMINOTRANSFERASE [3]: 264.83 u/L
ALBUMIN [3]: 3.62 G/DL
ALKALINE PHOSPHATASE [3]: 660.67 u/L
ASPARTATE AMINOTRANSFERASE [3]: 415.67 u/L
BLOOD UREA NITROGEN [3]: 12.67 mg/dL
CARBON DIOXIDE [3]: 28.83 mmol/L
CHLORIDE [3]: 98 MEQ/L
CHOLESTEROL [3]: 282.33 mg/dL
CREATINE PHOSPHOKINASE [3]: 281.83 u/L
CREATININE [3]: 0.18 mg/dL
GLUCOSE [3]: 117.33 mg/dL
LACTATE DEHYDROGENASE [3]: 160.33 u/L
LIPASE [3]: 11.33 u/L
PHOSPHORUS [3]: 9.08 mg/dL
POTASSIUM [3]: 6.45 MEQ/L
SODIUM [3]: 141.7 MEQ/L
TOTAL BILIRUBIN [3]: 3.02 mg/dL
TOTAL PROTEIN [3]: 6.22 G/DL
URIC ACID [3]: 0.85 mg/dL
